Test results published in article PMC9090415, “Discovery of small molecule inhibitors of Plasmodium falciparum apicoplast DNA polymerase” (Journal of Enzyme Inhibition and Medicinal Chemistry, 2022).

Molecular target: P. falciparum apicoplast DNA polymerase (Pf-apPOL) (Plasmodium falciparum, UniProt Q8ILY1)
Test: Fluorescence-based high-throughput DNA polymerase assay (molecular beacon), primary screen and dose-response
Assay type: biochemical
Details: for DNA Pol: 90 min, 10 µM
Protocol: The HT assay employs a molecular beacon, a stem-loop DNA template with a Cy3 dye and the Black Hole Quencher on the 3′ and 5′ ends of the DNA, respectively. Pf-apPOL concentration is based on a calculated absorptivity of ε280 = 56750 M^−1 cm^−1. Reactions were carried out at 25 °C, using Corning 3575 […] (well-volume, 20 µL). Assays testing for compound inhibition composed of reaction buffer (pH 7.9 in 50 mM potassium acetate, 20 mM Tris-acetate and 10 mM magnesium acetate), Pf-apPOL (20 nM), DNA substrate (20 nM), dNTPs (6 µM), and compound (10 µM in DMSO). The DNA and nucleotide substrates (dNTPs) were at concentrations of 20 nM and 6 µM, respectively, in the assay. Pf-apPOL was incubated in the reaction buffer with dNTPs and the compound of interest (10 µM, in the assay) at 25 °C for 10 min. The DNA substrate was then added and the reaction was allowed to proceed for 90 min at 25 °C.
Each assay plate contained 16 negative controls (no Pf-apPOL, DMSO present) and 16 positive controls (Pf-apPOL present, no DMSO). The fluorescence of each well was determined using a BioTek Synergy Neo fluorescence plate reader using excitation and emission wavelengths of 555 and 570 nm, respectively.
In the above, Min is the average of fluorescence emission of the negative controls (substrate only), Max the average fluorescence emission from the positive controls (enzyme + substrate), and Test the emission from the assays in the presence of compounds (enzyme + compound + substrates). […] […] The IC50 of each compound was determined using Equation (2): (2) IC50= Vmax/(1+ (I/IC50)^n)
In the above, n measures cooperativity, with n > 1 indicating synergistic binding of more than a single molecule of the compound.
To identify apPOL inhibitors we utilised our previously developed high-throughput DNA polymerase assay. The HT assay is based on a molecular beacon DNA template that forms a stem-loop with a Cy3 dye and the Black Hole Quencher on the 3′ and 5′ ends of the DNA, respectively. DNA polymerase activity extends an annealed primer through the stem region, displacing the fluorophore from the quencher, thereby increasing its fluorescence (Figure 1(A)). The assay accurately recapitulates the kinetic behaviour of apPOL, as measured through more conventional low-throughput gel-based assays. The Z′ factor for the assay described here was 0.9 across all plates (data not shown).
Figure 1. High-throughput screening. (A) The fluorescent-based DNA polymerase assay used to screen the compound libraries. The DNA template strand is a hairpin loop with a primer annealed to the loop. The 3’ end of the primer is 11 bases away from the 6 bp duplex. Strand displacement activity of the DNA polymerase separates the Cy3 dye from the Black hole quencher leading to an increase in fluorescent signal. (B) The high-throughput assay workflow. The DNA polymerase is incubated with […] compound for 10 min prior to addition of the hairpin substrate. The reaction is quenched at 3 different time points and the fluorescent signal is measured and % inhibition is determined using the provided equation.

[1] = 'DNA Pol', screening value, unit not given
[2] = primary screen hit value, DNA Pol (186 hits)

P. falciparum apicoplast DNA polymerase (Pf-apPOL), sequence (Q8ILY1 entry or part of it): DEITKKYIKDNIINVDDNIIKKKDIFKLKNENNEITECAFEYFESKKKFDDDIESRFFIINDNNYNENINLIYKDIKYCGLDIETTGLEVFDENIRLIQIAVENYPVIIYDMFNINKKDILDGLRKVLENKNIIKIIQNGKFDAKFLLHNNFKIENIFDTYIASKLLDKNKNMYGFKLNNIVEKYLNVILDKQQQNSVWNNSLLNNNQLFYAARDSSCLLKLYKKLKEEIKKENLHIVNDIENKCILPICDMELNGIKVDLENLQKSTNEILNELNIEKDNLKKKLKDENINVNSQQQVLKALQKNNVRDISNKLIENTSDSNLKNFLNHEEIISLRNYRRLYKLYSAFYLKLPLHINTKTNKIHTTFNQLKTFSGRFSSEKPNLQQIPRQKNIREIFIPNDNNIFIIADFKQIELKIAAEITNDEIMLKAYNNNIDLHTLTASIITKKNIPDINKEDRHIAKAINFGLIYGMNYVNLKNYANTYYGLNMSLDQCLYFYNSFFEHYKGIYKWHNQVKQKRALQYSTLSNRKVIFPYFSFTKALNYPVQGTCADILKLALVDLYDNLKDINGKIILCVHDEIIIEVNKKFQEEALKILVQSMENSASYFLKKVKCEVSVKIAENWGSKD

## O=[N+]([O-])c1cc2c(cc1CN1CCCCCC1)OCO2 [KU0004987]
[1]
  DNA Pol: 33
DRC-1, concentration 2.5
  % inhibition Apo pol 10': 6.817%
DRC-1, concentration 5
  % inhibition Apo pol 10': 8.194%
DRC-1, concentration 10
  % inhibition Apo pol 10': 20.8655%
DRC-1, concentration 20
  % inhibition Apo pol 10': 39.2503%
DRC-1, concentration 40
  % inhibition Apo pol 10': 59.1088%
DRC-1, concentration 80
  % inhibition Apo pol 10': 75.1762%
DRC-1, 90', concentration 2.5
  % inhibition Apol 90': 1.395%
DRC-1, 90', concentration 5
  % inhibition Apol 90': -0.8625%
DRC-1, 90', concentration 10
  % inhibition Apol 90': 9.436%
DRC-1, 90', concentration 20
  % inhibition Apol 90': 21.3205%
DRC-1, 90', concentration 40
  % inhibition Apol 90': 39.3126%
DRC-1, 90', concentration 80
  % inhibition Apol 90': 55.7488%
DRC-1, 180', concentration 2.5
  % inhibition apPOL 180': -4.392%
DRC-1, 180', concentration 5
  % inhibition apPOL 180': -7.266%
DRC-1, 180', concentration 10
  % inhibition apPOL 180': 1.794%
DRC-1, 180', concentration 20
  % inhibition apPOL 180': 10.6731%
DRC-1, 180', concentration 40
  % inhibition apPOL 180': 27.0699%
DRC-1, 180', concentration 80
  % inhibition apPOL 180': 43.7361%
DRC-2, 5', concentration 2.5
  % inhibition Apo pol 5': 17%
DRC-2, 5', concentration 5
  % inhibition Apo pol 5': 20%
DRC-2, 5', concentration 10
  % inhibition Apo pol 5': 32%
DRC-2, 5', concentration 20
  % inhibition Apo pol 5': 39%
DRC-2, 5', concentration 40
  % inhibition Apo pol 5': 46%
DRC-2, 5', concentration 80
  % inhibition Apo pol 5': 49%
DRC-2, 40', concentration 2.5
  % inhibition Apol 40': 13%
DRC-2, 40', concentration 5
  % inhibition Apol 40': 15%
DRC-2, 40', concentration 10
  % inhibition Apol 40': 22%
DRC-2, 40', concentration 20
  % inhibition Apol 40': 29%
DRC-2, 40', concentration 40
  % inhibition Apol 40': 39%
DRC-2, 40', concentration 80
  % inhibition Apol 40': 49%
DRC-2, 90', concentration 2.5
  % inhibition ApPOL 90': 9%
DRC-2, 90', concentration 5
  % inhibition ApPOL 90': 9%
DRC-2, 90', concentration 10
  % inhibition ApPOL 90': 16%
DRC-2, 90', concentration 20
  % inhibition ApPOL 90': 23%
DRC-2, 90', concentration 40
  % inhibition ApPOL 90': 33%
DRC-2, 90', concentration 80
  % inhibition ApPOL 90': 45%
DRC-2, 180', concentration 2.5
  % inhibition apPOL 180': 0.644%
DRC-2, 180', concentration 5
  % inhibition apPOL 180': 0.589%
DRC-2, 180', concentration 10
  % inhibition apPOL 180': 6%
DRC-2, 180', concentration 20
  % inhibition apPOL 180': 10%
DRC-2, 180', concentration 40
  % inhibition apPOL 180': 22%
DRC-2, 180', concentration 80
  % inhibition apPOL 180': 36%
Conc 2.5 (unit not given), 90', DRC-2
  % inhibition ApPOL 90': 9%
Conc 5 (unit not given), 90', DRC-2
  % inhibition ApPOL 90': 9%
Conc 10 (unit not given), 40', DRC-2
  % inhibition Apol 40': 22%
Conc 20 (unit not given), 5', DRC-2
  % inhibition Apo pol 5': 39%
Conc 40 (unit not given), 40', DRC-2
  % inhibition Apol 40': 39%
Conc 40 (unit not given), 180', DRC-2
  % inhibition apPOL 180': 22%
Conc 80 (unit not given), 5', DRC-2
  % inhibition Apo pol 5': 49%
Conc 80 (unit not given), 40', DRC-2
  % inhibition Apol 40': 49%
[2]
  DNA Pol: 33

## CN(C)C=CC(=O)c1ccccn1 [Molecule 64, CN(C=CC(=O)c1ccccn1)C]
[1]
  DNA Pol: 79
DRC-1, concentration 2.5
  % inhibition Apo pol 10': 5.279%
DRC-1, concentration 5
  % inhibition Apo pol 10': 16.5803%
DRC-1, concentration 10
  % inhibition Apo pol 10': 34.5693%
DRC-1, concentration 20
  % inhibition Apo pol 10': 50.9232%
DRC-1, concentration 40
  % inhibition Apo pol 10': 69.0219%
DRC-1, concentration 80
  % inhibition Apo pol 10': 79.1475%
DRC-1, 90', concentration 2.5
  % inhibition Apol 90': 1.734%
DRC-1, 90', concentration 5
  % inhibition Apol 90': 6.501%
DRC-1, 90', concentration 10
  % inhibition Apol 90': 20.4436%
DRC-1, 90', concentration 20
  % inhibition Apol 90': 33.6237%
DRC-1, 90', concentration 40
  % inhibition Apol 90': 52.2034%
DRC-1, 90', concentration 80
  % inhibition Apol 90': 65.606%
DRC-1, 180', concentration 2.5
  % inhibition apPOL 180': -0.4261%
DRC-1, 180', concentration 5
  % inhibition apPOL 180': -0.5089%
DRC-1, 180', concentration 10
  % inhibition apPOL 180': 10.9691%
DRC-1, 180', concentration 20
  % inhibition apPOL 180': 21.4909%
DRC-1, 180', concentration 40
  % inhibition apPOL 180': 39.455%
DRC-1, 180', concentration 80
  % inhibition apPOL 180': 54.1589%
DRC-2, 5', concentration 2.5
  % inhibition Apo pol 5': 10%
DRC-2, 5', concentration 5
  % inhibition Apo pol 5': 18%
DRC-2, 5', concentration 10
  % inhibition Apo pol 5': 34%
DRC-2, 5', concentration 20
  % inhibition Apo pol 5': 44%
DRC-2, 5', concentration 40
  % inhibition Apo pol 5': 50%
DRC-2, 5', concentration 80
  % inhibition Apo pol 5': 54%
DRC-2, 40', concentration 2.5
  % inhibition Apol 40': 6%
DRC-2, 40', concentration 5
  % inhibition Apol 40': 12%
DRC-2, 40', concentration 10
  % inhibition Apol 40': 27%
DRC-2, 40', concentration 20
  % inhibition Apol 40': 41%
DRC-2, 40', concentration 40
  % inhibition Apol 40': 53%
DRC-2, 40', concentration 80
  % inhibition Apol 40': 64%
DRC-2, 90', concentration 2.5
  % inhibition ApPOL 90': 0.656%
DRC-2, 90', concentration 5
  % inhibition ApPOL 90': 7%
DRC-2, 90', concentration 10
  % inhibition ApPOL 90': 21%
DRC-2, 90', concentration 20
  % inhibition ApPOL 90': 36%
DRC-2, 90', concentration 40
  % inhibition ApPOL 90': 50%
DRC-2, 90', concentration 80
  % inhibition ApPOL 90': 65%
DRC-2, 180', concentration 2.5
  % inhibition apPOL 180': -5%
DRC-2, 180', concentration 5
  % inhibition apPOL 180': -1.23%
DRC-2, 180', concentration 10
  % inhibition apPOL 180': 9%
DRC-2, 180', concentration 20
  % inhibition apPOL 180': 23%
DRC-2, 180', concentration 40
  % inhibition apPOL 180': 42%
DRC-2, 180', concentration 80
  % inhibition apPOL 180': 63%
Conc 40 (unit not given), 5', DRC-2
  % inhibition Apo pol 5': 50%
Conc 40 (unit not given), 90', DRC-2
  % inhibition ApPOL 90': 50%
[2]
  DNA Pol: 79
